From patent US5168101A, “Sulfonamide derivatives” (Ono Pharmaceutical Co., Ltd., priority 1987, dated 1992)

What was measured:
[1] = tested on: increasing of blood pressure induced by STA2; test: Inhibitory effect on increasing of blood pressure induced by STA2 in guinea pigs; format: in vivo; details: 100 μg/kg
Description: (iii) Inhibitory effect on increasing of blood pressure induced by STA2 in guinea pigs: A 7% sodium bicarbonate buffer solution (pH 7.6-8.6) of each tested compounds was administered intravenously via carotid vein or orally to a urethane-anaesthetized male guinea pig weighing 250~350 g, at a rate of 10-1000 μg/kg animal body weight. And then guinea pigs were administered intravenously a solution of STA2 in phosphate buffer (pH 7.4). change of the blood pressure was measured at carotid artery and then inhibition ratio (%) was calculated.
(§1) For example, in a standard laboratory test, the effects were possible to be confirmed by (i) inhibitory effect on increasing of blood pressure induced by STA2 in guinea pigs (antagonistic effect) and (ii) stimulatory effect on increasing of blood pressure in guinea pigs (agnostic effect).
(§2) Inhibitory effect on increasing of blood pressure induced by TXA2 in guinea pigs and stimulatory effect on increasing of blood pressure in guinea pigs: A 7% sodium bicarbonate buffer solution (pH 7.6~8.6) of each tested compounds was administered intravenously via carotid vein or orally to a urethane-anaesthetized male guinea pig weighing 250~350 g, at a rate of 100 μg/kg animal body weight. Increasing of blood pressure was measured in guinea pigs administered test compounds intravenously. On the other hand, to guinea pigs administered test compounds orally, then a solution of STA2 in phosphate buffer (pH 7.4) was administered. Change of the blood pressure was measured at carotid artery and then inhibition ratio (%) was calculated.

[2] = tested on: increasing of blood pressure in guinea pigs; test: Stimulatory effect on increasing of blood pressure in guinea pigs (agonistic effect on TXA2); format: in vivo; details: 100 μg/kg, i.v. (n = 2~4)
Description: as §1, §2

[3] = tested on: platelet aggregation induced by STA2 in human blood; test: Inhibitory effect on platelet aggregation induced by STA2 in human blood; format: cell-based; details: platelet aggregation induced by STA2 in human blood (platelet rich plasma, method of Born); read-out: Inhibitory effects on platelet aggregation (IC50)
Description: For example, in a standard laboratory test, the effects were possible to be confirmed by (i) inhibitory effect on platelet aggregation induced by STA2 (9α, 11α-epithio-15α-hydroxy-11α-carbathromba-5Z,13E-dienoic acid) in human blood, (ii) inhibitory effect on contraction of smooth muscle induced by STA2 in guinea pigs or (iii) inhibitory effect on increasing of blood pressure induced by STA2 in guinea pigs (intravenously and orally).
(i) Inhibitory effect on platelet aggregation induced by STA2 in human blood: Whole blood of healthy human adult was collected with citric acid, and the mixture (20 ml) was centrifuged (180×g) for 10 min. The supernatant obtained was diluted with sufficient platelet poor plasma to obtain plasma which contains 300,000 platelet cells power μl. A solution of tested compound in ethanol (1 μl) was added to the obtained plasma (250 μl), and then a solution of STA2 is ethanol was added to the mixtures. The measurement was carried out followed by the method of Born and then IC50 was calculated.

IC50 [3]	SMILES	(i) Duration of more than 50% inhibit increasing of blood pressure induced STA2 pig [1]	(ii) Effect of increasing of blood pressure in guinea pig [2]
–	Cc1ccc(S(=O)(=O)N[C@H]2[C@H]3CC[C@H](C3)[C@@H]2C/C=C\CCCC(=O)N[C@@H](CCCCN)C(=O)O)cc1 [Example 8, Amide of (5Z)-7-[(1R, 2S, 3S, 4S)-3-tosylaminobicyclo [2.2.1]heptan-2-yl]hept-5-enoic acid and lysine]	305 min	7 mmHg
520 nM	O=C(O)CCC/C=C\[C@H]1CCCC[C@@H]1CNS(=O)(=O)c1ccc(Br)cc1 (relative stereo) [1 (t), (5Z)-6-[(1R*, 2S*,)-2-[N-(4-bromobenzenesulfonyl)aminometh-yl]cyclohexan-1-yl]hex-5-enoicacid]	–	–
90 nM	Cc1ccc(S(=O)(=O)NC[C@H]2[C@H]3CC[C@H](C3)[C@@H]2/C=C\CCCC(=O)O)cc1 (relative stereo) [1 (p), (5Z)-6-[(1R*, 2R*, 3S*, 4S*)-3-[N-tosylaminomethyl]bicyclo[2.2.1]heptan-2-yl]hex-5-enoic acid]	–	–
–	Cc1ccc(S(=O)(=O)N[C@H]2[C@H]3CC[C@H](C3)[C@@H]2C/C=C\CCCC(N)=O)cc1	> 340 min	9 mmHg
1000 nM	O=C(O)CCC/C=C\[C@H]1[C@@H]2CC[C@@H](C2)[C@@H]1CCNS(=O)(=O)c1ccc(Br)cc1 [1 (u), (5Z)-6-[(1R, 2R, 3S, 4S)-3-[2-[N-(4-bromobenzenesulfonyl)amino]ethyl]bicyclo[2.2.1]heptan-2-yl]hex-5-enoic acid]	–	–
1000 nM	O=C(O)CCC/C=C\[C@H]1C[C@@H]2C[C@H]1[C@@H](NS(=O)(=O)c1ccc(Br)cc1)C2 (relative stereo) [1 (c), (5Z)-6-[(1R*, 2R*, 4R*, 6S*)-6-(4-bromobenzenesulfonylamino)bicyclo[2.2.1]heptan-2-yl]hex-5-enoic acid]	–	–
–	Cc1ccc(S(=O)(=O)N[C@H]2[C@H]3CC[C@H](C3)[C@@H]2C/C=C\CCCC(=O)NC(CCC(=O)O)C(=O)O)cc1 (stereo partly drawn) [7 (c), amide of (5Z)-7-[(1R, 2S, 3S, 4S)-3-tosylaminobicyclo[2.2.1]heptan-2-yl]hept-5-enoic acidand glutamic acid]	> 290 min	7 mmHg
280 nM	O=C(O)CCC/C=C\[C@H]1[C@@H]2CC[C@@H](C2)[C@@H]1CNS(=O)(=O)c1ccc(Br)cc1 [1 (r), (5Z)-6[(1R, 2R, 3S, 4S)-3-[N-(4-bromobenzenesulfonyl)aminomethyl]bicyclo[2.2.1]heptan-2-yl]hex-5-enoic acid]	–	–
–	CC(C)[C@@H]1CC[C@@H](C)C[C@H]1OC(=O)CCC/C=C\[C@@H]1[C@H]2CC[C@H](C2)[C@H]1CNS(=O)(=O)c1ccc(Br)cc1 [5 (h), menthyl(5Z)-6-[(1S, 2S, 3R, 4R)-3-[N-(4-bromobenzenesulfonyl)aminomethyl]bicyclo[2.2.1]heptan-2-yl]hex-5-enoate]	> 300 min	1 mmHg
680 nM	Cc1ccc(S(=O)(=O)NC[C@H]2CCC[C@@H]2/C=C\CCCC(=O)O)cc1 (relative stereo) [1 (w), (5Z)-6-[(1R, 2S*)-2-[N-tosylaminomethyl]cyclopentan-1-yl]hex-5-enoic acid]	–	–
10 nM	O=C(O)CCC/C=C\[C@@H]1[C@H]2CC[C@H](C2)[C@H]1CNS(=O)(=O)c1ccc(Br)cc1 [1 (y), (5Z)-6-[(1S, 2S, 3R, 4R)-3-[N-(4-bromobenzenesulfonyl)aminomethyl]bicyclo[2.2.1]heptan-2-yl]hex-5-enoic acid]	–	–
–	NC(=O)CCC/C=C\[C@@H]1[C@H]2CC[C@H](C2)[C@H]1CNS(=O)(=O)c1ccc(Br)cc1 [6 (d), (5Z)-6-[(1S, 2S, 3R, 4R)-3[N-(4-bromobenzenesulfonyl)aminomethyl]bicyclo[2.2.1]heptan-2-yl]hex-5-enamide]	> 240 min	6 mmHg
520 nM	Cc1ccc(S(=O)(=O)NCC2C3CCC(C3)C2C=CCCCC(=O)O)cc1 [1 (s), (5Z)-6-[(1S, *2S*, 3S*, 4R*)-3-[N-tosylaminomethyl]bicyclo[2.2.1]heptan-2-yl]hex-5-enoic acid]	–	–
1780 nM	Cc1ccc(S(=O)(=O)N[C@@H]2C[C@@H]3C[C@H](C/C=C\CCCC(=O)O)[C@H]2C3)cc1 (relative stereo) [4 (a)]	–	–
–	CCCCCCCCOC(=O)CCC/C=C\[C@@H]1[C@H]2CC[C@H](C2)[C@H]1CNS(=O)(=O)c1ccc(Br)cc1 [5 (g), octyl(5Z)-6-[(1S, 2S, 3R, 4R)-3-[N-(4-bromobenzenesulfonyl)aminomethyl]bicyclo[2.2.1]heptan-2-yl]hex-5-enoate]	> 300 min	1 mmHg
–	Cc1ccc(S(=O)(=O)N[C@H]2[C@H]3CC[C@H](C3)[C@@H]2C/C=C\CCCC(=O)NC(C)C(=O)O)cc1 (stereo partly drawn) [7 (b), amide of (5Z)-7-[(1R, 2S, 3S, 4S)-3-tosylaminobicyclo[2.2.1]heptan-2-yl]hept-5-enoic acidand alanine]	> 290 min	11 mmHg
170 nM	O=C(O)CCC/C=C\[C@@H]1CCC[C@H](NS(=O)(=O)c2ccc(Br)cc2)C1 (relative stereo) [1 (m), (5Z)-6-[(1R*, 3S*)-3-(4-bromobenzenesulfonylamino)cyclohexyl]hex-5-enoic acid]	–	–
–	Cc1ccc(S(=O)(=O)N[C@H]2[C@H]3CC[C@H](C3)[C@@H]2C/C=C\CCCC(=O)NCC(=O)O)cc1 [Example 7, Amide of (5Z)-7-[(1R, 2S, 3S, 4S)-3-tosylaminobicyclo [2.2.1]heptan-2-yl]hept-5-enoic acid and glycine]	> 270 min	9 mmHg
30 nM	O=C(O)CCC/C=C\[C@@H]1CC[C@H](NS(=O)(=O)c2ccc(Br)cc2)C1 [1 (i), (5Z)-6-[(1R, 3S)-3-(4-bromobenzenesulfonylamino)cyclopentyl]hex-5-enoic acid]	–	–
50 nM	Cc1ccc(S(=O)(=O)NC[C@@H]2[C@@H]3CC[C@@H](C3)[C@H]2/C=C\CCCC(=O)O)cc1 [1 (x), (5Z)-6-[(1S, 2S, 3R, 4R)-3-[N-tosyl-aminomethyl]bicyclo[2.2.1]heptan-2-yl]hex-5-enoic acid]	–	–
–	Cc1ccc(S(=O)(=O)N[C@H]2[C@H]3CC[C@H](C3)[C@@H]2C/C=C\CCCC(=O)O)cc1 [The compared compound, reference compound]	205 min	36 mmHg
660 nM	O=C(O)CCC/C=C\[C@H]1C[C@@H]2CC[C@H]1[C@@H](NS(=O)(=O)c1ccc(Br)cc1)C2 (relative stereo) [1 (a), (5Z)-6-[(1R*, 2R*, 4S*, 6S*)-6-(4-bromobenzenesulfonylamino)bicyclo[2.2.2]octan-2-yl]hex-5-enoic acid]	–	–
220 nM	O=C(O)CCC/C=C\[C@H]1CCC[C@@H]1CNS(=O)(=O)c1ccc(Br)cc1 (relative stereo) [1 (v), (5Z)-6-[(1R, 2S*)-2-[N-(4-bromobenzenesulfonyl)aminomethyl]cyclopentan-1-yl]hex-5-enoic acid]	–	–
1670 nM	O=C(O)CCC/C=C\[C@H]1[C@@H]2CC[C@@H](C2)[C@@H]1CNS(=O)(=O)c1ccccc1 [1 (q), (5Z)-6-[(1R, 2R, 3S, 4S)-3-(N-benzenesulfonylaminomethyl)bicyclo[2.2.1]heptan-2-yl]hex-5-enoic acid]	–	–
